The subject of test [1] is ES2. Briefly: CellTiter-Glo viability assay, ES2. Type of test: cell-based, human. The settings on record: for IC50: Homo sapiens, ES-2, ES2, read-out: IC50 cellular viability (CellTiter-Glo). How it is done: CellTiter-Glo (CTG) viability assays were performed per the manufacturer's instructions. Briefly, 5,000-10,000 cells were seeded per well in a 96 well plate then treated with either DMSO or EGLN1 inhibitor in doses indicated. […] Data presented are the average of three technical replicates.
On the technique in general: In ATP-based viability assays light output follows the ATP content of the culture.

Test [2] concerns OVCAR4. Briefly: Annexin V apoptosis by flow cytometry, OVCAR4. The format is cell-based, human. The settings on record: OVCAR4, 40 μM, 48 hours. How it is done: (§1) Flow cytometry was performed at the Broad Institute Flow Cytometry core using CFSE (5(6)-Carboxyfluorescein N-hydroxysuccinimidyl ester)—Cell Labeling Kit (Abcam ab113853) to label dividing cells with CFSE and analyzed on FL-1 Excitation(max) 492 nm, Emission(max) 517 nm. […] Dual labeling Annexin V with 7-Amino-Actinomycin (7-AAD) allowed quantification of apoptosis. Data are presented as the average of two technical replicates and are representative of three independent experiments. Data were analyzed using FlowJo data analysis.
(In general: A flow cytometer gives signals particle by particle.)

The test system of test [3] is HIF1A. Briefly: Immunoblot of HIF1A levels after inhibitor treatment. The format is cell-based, human.
In test [4] the test system is JHOC5. Briefly: Long term proliferation assay, JHOC5. The settings on record: JHOC5, dose-dependent. The format is cell-based, human. From the text:
(§2) Data are representative of two independent experiments.

In test [5] the test system is OVISE. Briefly: Long term proliferation assay, OVISE. The format is cell-based, human. The settings on record: for long term proliferation: OVISE, dose-dependent.
Description: (§8) Data presented are the average of three technical replicate wells when available, excluding wells where there were no live cells to passage. Data are representative of two independent experiments.
The subject of test [6] is TOV112D. Briefly: CellTiter-Glo viability assay, TOV112D. Type of test: cell-based, human. The settings on record: 48 hours, increasing dose. How it is done: CellTiter-Glo (CTG) viability assays were performed per the manufacturer's instructions. Briefly, 5,000-10,000 cells were seeded per well in a 96 well plate then treated with either DMSO or EGLN1 inhibitor in doses indicated. […] Data presented are the average of three technical replicates. Data are representative of three independent experiments.

Test [7] concerns TOV112D. Briefly: Annexin V apoptosis by flow cytometry, TOV112D. Type of test: cell-based, human. The settings on record: 40 μM, 48 hours. How it is done: as §1
For test [8], the system named is ES2 HIF1A knockout. Briefly: Proliferation assay, ES2 HIF1A knockout cells. Type of test: cell-based, human.
Description: as §8
Test [9] has as its system ES2. Briefly: Long term proliferation assay, ES2. Type of test: cell-based, human. The settings on record: for proliferation: ES2 control sgRNA cells; for long term proliferation: ES2.
Description: as §8
Test [10] concerns not EGLN1-dependent cell lines. Briefly: Colony formation assay, not EGLN1-dependent cell lines. Type of test: cell-based, human.
Description: (§9) Media and drug were refreshed every 3-4 days for 10 days. Cells were fixed on the plate with 10% neutral buffered formalin (Thermo Fisher Scientific) and stained with 0.1% crystal violet in 10% ethanol. After plates were washed and dried, dye was extracted using 10% acetic acid. Absorbance of extracted dye samples at 595 nm was quantified using a Molecular Devices SpectraMax M5 Plate Reader. […] Data are representative of three independent experiments.
In test [11] the test system is tumors formed from ES2. Briefly: Microdevice delivery into ES2 tumors, immunohistochemistry. The format is in vivo, mice. The settings on record: ES2 (HIF1A WT) tumors, local microdevice delivery, 48 hours. How it is done:
(§3) Female Athymic^Nu/Nu mice (8-10 weeks old) were used, were obtained from Jackson Laboratories and had access to food and water in appropriate housing conditions. All animal procedures performed at the Broad Institute were approved by the Institutional Animal Care and Use Committee (IACUC) and according to institutional regulations.
(§4) Devices were manufactured as previously described (42). Briefly, microscale devices at diameter […] and length 3 mm were manufactured and pure powder compounds were formulated in 50% PEG. Mice were subcutaneously delivered ovarian cancer cells and tumors were allowed to grow to 1 cm^2. Mice were anesthetized during implantation using 1% isoflurane. A 19-guage spinal biopsy needle (Angiotech) was inserted into the tumor and served as the location for the device to be implanted.
(§5) Immunohistochemistry was performed on 4 μm serial sections from formalin-fixed, paraffin-embedded (FFPE) tumor tissues. The samples were deparaffinized, rehydrated, and pretreated for antigen retrieval by microwave treatment. Immunostaining was done using cell proliferation marker Ki67 and cleaved caspase 3 (CCE) at the Koch Institute Microscopy Core Facility.
(§6) By inserting this microdevice directly into the tumor, the effect of FG-4592, Bay 85-3934 and VH298 in tumors was assessed in vivo. Specifically, ES2 cells were implanted with intact HIF1A (ES2) or HIF1A knockout (ES2 HIF1A KO) in immunodeficient mice and the tumors were allowed to grow to 1 cm^2 before implanting a microdevice containing the EGLN1 inhibitor FG-4592 and VHL inhibitor VH298. Following implantation, the tumors were collected after 48 hours and the tumors were sectioned and stained for proliferation with an antibody against Ki-67, a cellular marker for proliferating cells or Cleaved Caspase-3, a cellular marker for apoptosis.

Test [12] has as its system TOV112D. Briefly: Colony formation assay in hypoxia, TOV112D. The settings on record: 5% oxygen. The format is cell-based, human. An excerpt: Data are representative of three independent experiments.
The test system of test [13] is TOV112D. Briefly: CFSE proliferation by flow cytometry, TOV112D. The settings on record: increasing concentration, 48 hours. The format is cell-based, human. How it is done: (§7) Flow cytometry was performed at the Broad Institute Flow Cytometry core using CFSE (5(6)-Carboxyfluorescein N-hydroxysuccinimidyl ester)—Cell Labeling Kit (Abcam ab113853) to label dividing cells with CFSE and analyzed on FL-1 Excitation(max) 492 nm, Emission(max) 517 nm. Apoptosis was detected using PE Annexin V Apoptosis Detection Kit 1 (BD Biosciences 559763). Dual labeling Annexin V with 7-Amino-Actinomycin (7-AAD) allowed quantification of apoptosis. Data are presented as the average of two technical replicates and are representative of three independent experiments. Data were analyzed using FlowJo data analysis.

Test [14] concerns ES2. Briefly: Annexin V apoptosis by flow cytometry, ES2. Type of test: cell-based, human. The settings on record: ES2, 40 μM, 48 hours. How it is done: as §1
Test [15] deals with OVISE. Briefly: Annexin V apoptosis by flow cytometry, OVISE. Type of test: cell-based, human. The settings on record: 40 μM, 48 hours. How it is done:
as §1

Test [16] relates to sensitive cell lines (EGLN1-dependent). The settings on record: up to 30 days, p<0.01. How it is done:
Non-Cas9 expressing cells were plated on a 12 well or 6 well plate in triplicate with varying concentrations of FG-4592. Every 3-4 days cells were trypsinized, counted using Nexcelom Cellometer, and reseeded at equal densities with the same concentrations of FG-4592, IOX2, BAY85-3934 or VH298. Data presented are the average of three technical replicate wells when available, excluding wells where there were no live cells to passage.

Test [17] relates to ES2. Briefly: CFSE proliferation by flow cytometry, ES2. The format is cell-based, human. The settings on record: ES2, increasing concentration, 48 hours. How it is done:
as §7

Test [18] relates to HIF1A activity. Briefly: Hypoxia Response Element (HRE) luciferase reporter. The settings on record: 48 hours post-treatment, increasing dose. The format is cell-based, human. How it is done: The Hypoxia Response Element (HRE) was designed based on previous publications (18, 19) and was cloned with a luciferase reporter. The construct was then stably transfected to EGLN1 dependent and independent cell lines. Following transfection cells were treated with EGLN1 inhibitor for up to 6 days and luciferase activity was measured as a readout of HIF1A activity.
(In general: In a reporter assay the amount or activity of a reporter protein is the signal.)

In test [19] the test system is TOV21G. Briefly: Long term proliferation assay, TOV21G. Type of test: cell-based, human. The settings on record: dose-dependent.
Description: as §2

In test [20] the test system is OVISE HIF1A knockout. Briefly: Proliferation assay, OVISE HIF1A knockout cells. Type of test: cell-based, human. The settings on record: 10 uM and 20 uM.
Description: as §2
However, such depletion of HIF1A rescued EGLN1-sensitivity to FG-4592 in ES2 (FIG. 5C) and OVISE (FIG. 5D) (p<0.05) cell lines.

The test system of test [21] is EGLN1-dependent cell lines OVTOKO, OVISE and ES2. The settings on record: hypoxia (5% oxygen) and normoxia.
Description: Cells were plated at a low density (250-1000 cells/well) with varying concentrations of FG-4592 (Selleck) on 24 well plates. Media and drug were refreshed every 3-4 days for 10 days. Cells were fixed on the plate with 10% neutral buffered formalin (Thermo Fisher Scientific) and stained with 0.1% crystal violet in 10% ethanol. After plates were washed and dried, dye was extracted using 10% acetic acid. Absorbance of extracted dye samples at 595 nm was quantified using a Molecular Devices SpectraMax M5 Plate Reader. […] Data are representative of three independent experiments.
To test this hypothesis, colony-forming formation assays were performed in the context of normal culture conditions (normoxia) or in a hypoxic incubator at 5% oxygen (hypoxia).
For test [22], the system named is EGLN1-dependent cell lines. Briefly: Colony formation assay, EGLN1-dependent cell lines. The format is cell-based, human.
Description: as §9
The subject of test [23] is tumors formed from ES2 with HIF1A KO. Briefly: Microdevice delivery into ES2 HIF1A KO tumors, immunohistochemistry. Type of test: in vivo, mice. The settings on record: local microdevice delivery, 48 hours. How it is done:
as §3, §4, §5, §6

The test system of test [24] is EGLN1-dependent cells. Briefly: CellTiter-Glo viability assay over 5 days. The format is cell-based, human. The settings on record: treated over 5 days. How it is done:
CellTiter-Glo (CTG) viability assays were performed per the manufacturer's instructions. Briefly, 5,000-10,000 cells were seeded per well in a 96 well plate then treated with either DMSO or EGLN1 inhibitor in doses indicated. Following 3-6 days treatment (retreated at day 4) CTG compound was added and viability was measured. Data presented are the average of three technical replicates.

In test [25] the test system is OVTOKO. Briefly: Long term proliferation assay, OVTOKO. Type of test: cell-based, human. The settings on record: dose-dependent.
Description: as §2

The subject of test [26] is TOV112D. Briefly: Long term proliferation assay, TOV112D. Type of test: cell-based, human.
Description: as §2

With `O=C(O)CNC(=O)c1nc(Cl)c2ccccc2c1O` [FG-2216], the “sensitivity of ES2 to EGLN1 inhibitors (viability)” value in test [1] (ES2, FIG. 11D) is “showed sensitivity”.

For orientation: IC50 means the concentration that gives 50% inhibition. As to `Cc1nc(C(=O)NCC(=O)O)c(O)c2ccc(Oc3ccccc3)cc12` [FG-4592], the “apoptosis (Annexin V stain)” value in [2] is recorded as “not increasing apoptosis”; in [7] it was “not increasing apoptosis”; in [14], “increased apoptosis”; in test [15], “increased apoptosis”. Moreover, the “HIF1A levels (immunoblot)” value in test [3] (ES2 cells) and in test [3] (TOV112D cells) was “increased HIF1A levels in a dose-dependent manner” in each case. The values for the long term proliferation entry in test [4], in test [16] and in test [19] were “reduced long term proliferation”, “significantly reduced long term proliferation” and “reduced the long term proliferation”, respectively. The proliferation result in test [5] (OVISE control sgRNA cells, 10 uM and 20 uM) was “reduced proliferation of control cells”; in test [8] (10 uM and 20 uM), “resistant to EGLN1 inhibition”; in test [9] (10 uM and 20 uM), “reduced proliferation of control cells”; in [20] it was “resistant to EGLN1 inhibition”. Moreover, the “cell viability (CellTiter-Glo)” value is recorded as “no effect” in test [6] and “reduced viability” in [1] (ES2, 48 hours, increasing dose). Further, the colony formation entry in test [10] is given as “no effect”; in [22] it was “reduced colony formation”. The IC50 in test [1] was 40 to 50 µM. Moreover, the entries for the “tumor cell apoptosis (Cleaved Caspase-3 immunostaining)” value (shortened to “tumor cell apoptosis”) in [11] and in test [23] were “increased apoptosis” and “no change”, respectively. Also, the “tumor cell proliferation (Ki-67 immunostaining)” value (“tumor cell proliferation” below) was “dramatic reduction in proliferating cells” in test [11] and “no change” in test [23]. Moreover, the figures for the “colony formation, sensitivity to inhibitor” value in [12] and in test [21] were “Increased sensitivity to EGLN1 inhibition was not observed” and “sensitive”, respectively. Further, the “cell proliferation (CFSE stain, flow cytometry)” value is reported as “did not reduce cell proliferation” in test [13] and “reduced cell proliferation” in [17]. For the same compound, the “HIF1A activity (HRE luciferase reporter)” value in test [18] is “increased in both EGLN1-dependent cell lines and cell lines not dependent on EGLN1”. For the same compound, in test [24], the “viability (CTG)” value is reported as “reduced viability in a dose-dependent manner”.

On to `O=C(O)CNC(=O)c1c(O)c2ccccc2n(Cc2ccccc2)c1=O` [IOX2], for which the long term proliferation entry in test [5], in test [25] and in test [9] was “reduced long term proliferation” in each case. Also, the colony formation result in test [10] is listed as “no effect”; in [22], “reduced colony formation”. In addition, the “viability (CTG)” value in test [24] is given as “reduced viability in a dose-dependent manner”.

As for `O=c1c(-n2ccnn2)c[nH]n1-c1cc(N2CCOCC2)ncn1` [Molidustat], the “HIF1A levels (immunoblot)” value in test [3] (ES2 cells) and in test [3] (TOV112D cells) was “increased HIF1A levels in a dose-dependent manner” each time. Moreover, the IC50 in [1] was 40 to 50 µM.

For `Cc1ncsc1-c1ccc(CNC(=O)[C@@H]2C[C@@H](O)CN2C(=O)[C@@H](NC(=O)C2(C#N)CC2)C(C)(C)C)cc1` [VH298], the “HIF1A levels (immunoblot)” value in [3] (ES2 cells) is listed as “increased HIF1A levels in a dose-dependent manner”. The long term proliferation entry is on record as “reduced long term proliferation” in [5], “reduced long term proliferation” in test [25] and “substantially decreased cell proliferation” in test [9]. Also, the results for the proliferation result in test [8] (100 uM), in test [9] (100 uM) and in [26] were “resistant to VHL1 inhibition”, “significantly reduced proliferation of control cells” and “slightly decreased proliferation”, respectively. Moreover, the “tumor cell apoptosis” value in test [11] was “increased apoptosis”; in test [23], “dependent on intact HIF1A”. In addition, the “tumor cell proliferation” value was “reduction of proliferating cells” in test [11] and “dependent on intact HIF1A” in test [23].

On to `COc1cccc2c1C(=O)c1c(O)c3c(c(O)c1C2=O)C[C@@](O)(C(=O)CO)C[C@@H]3O[C@H]1C[C@H](N)[C@H](O)[C@H](C)O1` [doxorubicin], for which the “tumor cell apoptosis” value in test [11] and in [23] was “increased apoptosis” in each case. Moreover, the “tumor cell proliferation” value in test [11] and in [23] was “reduced proliferation” in each case.

(Values after US20220090083A1, “TARGETING EGLN1 IN CANCER” (THE BROAD INSTITUTE, INC., priority 2018, published 2022).)
